Test results reported in patent US10196363B2, “Dihydropyrimidin-2-one compounds and medical use thereof” (JAPAN TOBACCO INC., priority 2014, dated 2019).
Read-outs that look alike come from different tables or passages of the source.

Key:
human RORγ = biological target: T1, human RORγ (Homo sapiens, UniProt P51449); assay: In vitro assay of inhibitory effect against RORγ transcriptional activity (GAL4-hRORγ LBD luciferase reporter gene assay in CHO cells); assay type: cell-based; conditions: for hRORγ luciferase activity, %-of-control: value in parentheses beside the > EC50 bound, vehicle-control 0.2% DMSO alone = 100%
T1 construct: human RORγ, from Ser253 to Lys518; expressed in transfected cells; host or cells: CHO cells (Chinese hamster ovary), transient co-transfection with pG5-Luc
T1 sequence (P51449 253-518): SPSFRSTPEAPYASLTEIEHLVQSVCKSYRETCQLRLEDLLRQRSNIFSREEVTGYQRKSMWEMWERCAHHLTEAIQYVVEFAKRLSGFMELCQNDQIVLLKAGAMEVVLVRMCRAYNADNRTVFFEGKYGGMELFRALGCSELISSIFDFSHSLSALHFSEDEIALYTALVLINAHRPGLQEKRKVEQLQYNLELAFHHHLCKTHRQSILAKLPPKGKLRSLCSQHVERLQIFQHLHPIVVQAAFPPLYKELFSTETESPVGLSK
Summary of the method: (§1)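 Transcriptional activity of human or mouse RORγ LBD, tethered to the GAL4 DNA-binding domain, is monitored by a GAL4-dependent firefly luciferase reporter in transiently transfected CHO cells. Test articles are incubated for 2 days; values are %-of-control or fitted EC50.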

mouse RORγ = biological target: T2, mouse RORγ (Mus musculus, UniProt P51450); assay: In vitro assay of inhibitory effect against RORγ transcriptional activity (GAL4-mRORγ LBD luciferase reporter gene assay in CHO cells); assay type: cell-based; conditions: for mRORγ luciferase activity, %-of-control: value in parentheses beside the > EC50 bound, vehicle-control 0.2% DMSO alone = 100%
T2 construct: mouse RORγ, from Ile251 to Lys516; expressed in transfected cells; host or cells: CHO cells (Chinese hamster ovary), transient co-transfection with pG5-Luc
T2 sequence (P51450 251-516): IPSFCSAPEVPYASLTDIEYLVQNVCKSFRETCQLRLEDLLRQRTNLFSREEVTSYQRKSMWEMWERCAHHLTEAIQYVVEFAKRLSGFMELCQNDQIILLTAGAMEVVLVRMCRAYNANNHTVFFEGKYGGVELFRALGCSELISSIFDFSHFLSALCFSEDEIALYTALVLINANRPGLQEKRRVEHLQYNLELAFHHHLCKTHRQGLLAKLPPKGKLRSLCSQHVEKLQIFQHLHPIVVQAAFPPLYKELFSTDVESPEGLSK
Summary of the method: as §1

[1] = GAL4-hRORγ LBD / pG5-Luc in CHO cells, 2 days incubation
[2] = GAL4-mRORγ LBD / pG5-Luc in CHO cells, 2 days incubation
[3] = GAL4-hRORγ LBD luciferase reporter, CHO cells, read-out: LUC EC50 hRORγ
[4] = GAL4-mRORγ LBD luciferase reporter, CHO cells, read-out: LUC EC50 mRORγ

Row | Structure (SMILES) | EC50 (human RORγ; [1]) | EC50 (mouse RORγ; [2]) | EC50 (human RORγ; [3]) | EC50 (mouse RORγ; [4]) | hRORγ luciferase activity, %-of-control (human RORγ) | mRORγ luciferase activity, %-of-control (mouse RORγ)
1 | CCC(C)C1=CN(CCCC(=O)O)C(=O)NC1(C)c1ccc(CCC(C)(C)C)c(Cl)c1 (single isomer, unassigned) [Example 34] | 13 nM | 21 nM | – | – | – | –
2 | CC(C)C1=CN([C@H]2C[C@H](C(=O)O)C2)C(=O)N[C@@]1(C)c1cc(Cl)c(CCC(C)(C)C)cc1F [Example 104] | 50 nM | 31 nM | – | – | – | –
3 | CC(C)CC1=CN(CCCC(=O)O)C(=O)N[C@@]1(C)c1ccc(CCC(C)(C)C)c(Cl)c1 [Example 38] | 11 nM | 15 nM | – | – | – | –
4 | CC(C)CCOc1ccc([C@]2(C)NC(=O)N(CCC(=O)O)C=C2CC(C)C)c(F)c1Cl [Example 202] | – | – | 87 nM | 52 nM | – | –
5 | CC(C)C1=CN(C2CCC(C(=O)O)C2)C(=O)N[C@@]1(C)c1ccc(CCC(C)(C)C)c(Cl)c1 (single isomer, unassigned) [Example 64] | 19 nM | 16 nM | – | – | – | –
6 | CC(C)C1=CN(CC[C@@H](O)C(=O)O)C(=O)N[C@]1(C)c1ccc(CCC(C)(C)C)c(Cl)c1 [Example 88] | 443 nM | 422 nM | – | – | – | –
7 | CC(C)C1=CN(CC(=O)O)C(=O)N[C@@]1(C)c1ccc(CCC(C)(C)C)c(Cl)c1 [Example 94] | 152 nM | 142 nM | – | – | – | –
8 | CC(C)C1=CN(CCC(=O)O)C(=O)N[C@]1(C)c1ccc(CCC2(C)CC2)c(Cl)c1 [Example 131] | > 8000 nM | > 8000 nM | – | – | (77%) | (81%)
9 | CC(C)(C)CCc1ccc([C@]2(C)NC(=O)N(c3ccc(C(=O)O)cc3)C=C2C2CC(F)(F)C2)cc1C(F)(F)F [Example 342] | – | – | 43 nM | 28 nM | – | –
10 | CC(C)(C)CCc1ccc(C2(C)NC(=O)NC=C2C(C)(C)CCC(=O)O)cc1Cl (single isomer, unassigned) [Example 130, 4-{4-[3-chloro-4-(3,3-dimethyl-butyl)-phenyl]-4-methyl-2-oxo-1,2,3,4-tetrahydro-pyrimidin-5-yl}-4-methyl-pentanoic Acid] | 10 nM | 19 nM | – | – | – | –
11 | CC(C)C1=CN(CCC(=O)O)C(=O)N[C@@]1(C)c1ccc(CC2CC(F)(F)C2)c(Cl)c1 [Example 282] | – | – | 378 nM | 187 nM | – | –
12 | CC(C)C1=CN(C(C)CCC(=O)O)C(=O)NC1(C)c1ccc(CCC(C)(C)C)c(Cl)c1 (stereo not shown) [Example 73] | 803 nM | 657 nM | – | – | – | –
13 | CC(C)C1=CN(C2CCCC2C(=O)O)C(=O)N[C@@]1(C)c1ccc(CCC(C)(C)C)c(Cl)c1 (single isomer, unassigned) [Example 242] | – | – | 78 nM | 58 nM | – | –
14 | CC(C)(C)COc1ccc(C2NC(=O)N(CCCC(=O)O)C=C2C(C)(C)C)cc1Cl (racemic) [Example 1] | 88 nM | 60 nM | – | – | – | –
15 | COCCC1=CN(c2ccc(C(=O)O)c(OC)c2)C(=O)N[C@@]1(C)c1ccc(C2=CCC(C)(C)CC2)c(Cl)c1 [Example 333] | – | – | 23 nM | 13 nM | – | –
16 | COCC1(N2C=C([C@H]3C[C@@H](C(=O)O)C3)[C@](C)(c3ccc(CCC(C)(C)C)c(Cl)c3)NC2=O)CC1 [Example 250] | – | – | 42 nM | 114 nM | – | –
17 | COc1cc(N2C=C(C(C)C)[C@](C)(c3ccc(CCC(C)(C)C)c(Cl)c3)NC2=O)ccc1C(=O)O [Example 226, 4-{(S)-4-[3-Chloro-4-(3,3-dimethyl-butyl)-phenyl]-5-isopropyl-4-methyl-2-oxo-3,4-dihydro-2H-pyrimidin-1-yl}-2-methoxy-benzoic Acid] | – | – | 17 nM | 20 nM | – | –
18 | CC(C)(C)CCc1ccc(C2(C)NC(=O)N(CCCC(=O)O)C=C2CC(C)(C)C)cc1Cl (racemic) [Example 23] | 42 nM | 41 nM | – | – | – | –
19 | CC(C)(C)CCc1ccc(C2(C)NC(=O)N(CCCC(=O)O)C=C2C(C)(C)C)cc1Cl (racemic) [Example 22] | 17 nM | 29 nM | – | – | – | –
20 | CC(C)C1=CN(CCC(=O)O)C(=O)N[C@@]1(C)c1ccc(CCC2CC(C)(C)C2)c(Cl)c1 [Example 142] | > 512 nM | 49 nM | – | – | (102%) | –
21 | CC(C)C1=CN(CCC(=O)O)C(=O)N[C@]1(C)c1ccc(CCc2ccccc2)c(Cl)c1 [Example 143] | > 8000 nM | > 8000 nM | – | – | (90%) | (100%)
22 | CC(C)C1=CN(CCC(=O)O)C(=O)N[C@]1(C)c1ccc(C2CCC2)c(Cl)c1 [Example 152] | > 20000 nM | > 20000 nM | – | – | (56%) | (57%)

Row | Structure (SMILES) | EC50 (human RORγ; [1]) | EC50 (mouse RORγ; [2]) | EC50 (human RORγ; [3]) | EC50 (mouse RORγ; [4]) | hRORγ luciferase activity, %-of-control (human RORγ) | mRORγ luciferase activity, %-of-control (mouse RORγ)
23 | CC(C)(C)COc1ccc([C@]2(C)NC(=O)N(c3ccc(C(=O)O)cc3)C=C2C2CC(F)(F)C2)cc1Cl [Example 353] | – | – | 59 nM | 45 nM | – | –
24 | CC(C)(C)CCc1ccc([C@@]2(C)NC(=O)N(CCCC(=O)O)C=C2C2CC(F)(F)C2)cc1Cl [Example 145] | 2040 nM | 3970 nM | – | – | – | –
25 | CC(C)C1=CN([C@H]2CC[C@H](C(=O)O)CC2)C(=O)N[C@@]1(C)c1ccc(CCC(C)(C)C)c(Cl)c1 [Example 79] | 16 nM | 18 nM | – | – | – | –
26 | CC(C)COc1ccc([C@]2(C)NC(=O)N(CCC(=O)O)C=C2C(C)C)cc1Cl [Example 183] | 118 nM | 78 nM | – | – | – | –
27 | COCC(C)C1=CN(C23CCC(C(=O)O)(C2)C3)C(=O)N[C@@]1(C)c1ccc(CCC(C)(C)C)c(Cl)c1 (single isomer, unassigned) [Example 351] | – | – | 4 nM | 11 nM | – | –
28 | CC(C)C1=CN([C@H]2C[C@H](CC(=O)O)C2)C(=O)N[C@@]1(C)c1ccc(CCC(C)(C)C)c(Cl)c1 [Example 108] | 16 nM | 21 nM | – | – | – | –
29 | CC(C)C1=CN([C@H]2C[C@](C)(C(=O)O)C2)C(=O)N[C@]1(C)c1ccc(CCC(C)(C)C)c(Cl)c1 [Example 111] | 405 nM | 481 nM | – | – | – | –
30 | CC(C)C1=CN(CCC(=O)O)C(=O)N[C@@]1(C)c1ccc(CCC(C)(C)CO)c(Cl)c1 [Example 260] | – | – | 439 nM | 492 nM | – | –
31 | CCC1=CN(CCCC(=O)O)C(=O)N[C@@]1(C)c1ccc(CCC(C)(C)C)c(Cl)c1 [Example 69] | 20 nM | 17 nM | – | – | – | –
32 | CC(C)(C)CCc1ccc([C@]2(C)NC(=O)N(CCC(N)=O)C=C2[C@H]2C[C@@H](C(=O)O)C2)cc1Cl [Example 249] | – | – | 412 nM | 779 nM | – | –
33 | COCC(C)C1=CN(C23CCC(C(=O)O)(C2)C3)C(=O)N[C@@]1(C)c1ccc(CCC(C)(C)C)c(Cl)c1 (single isomer, unassigned) [Example 352] | – | – | 63 nM | 51 nM | – | –
34 | CC(C)(C)CCc1ccc(C2NC(=O)N([C@H]3C[C@H](C(=O)O)C3)C=C2C(C)(C)C)cc1Cl (single isomer, unassigned) [Example 101] | 32 nM | 21 nM | – | – | – | –
35 | CC(C)(C)CCc1ccc([C@]2(C)NC(=O)N(CC3CC(F)(F)C3)C=C2[C@H]2C[C@@H](C(=O)O)C2)cc1Cl [Example 248] | – | – | 10 nM | 21 nM | – | –
36 | CC(C)N1C=C(CCC(=O)O)[C@](C)(c2ccc(CCC(C)(C)C)c(Cl)c2)NC1=O [Example 230] | – | – | 225 nM | 76 nM | – | –
37 | CC(C)C1=CN([C@H]2C[C@](C)(C(=O)O)C2)C(=O)N[C@@]1(C)c1ccc(CCC(C)(C)C)c(Cl)c1 [Example 112] | 21 nM | 19 nM | – | – | – | –
38 | CC(C)C1=CN(C2CCCC2C(=O)O)C(=O)N[C@@]1(C)c1ccc(CCC(C)(C)C)c(Cl)c1 (single isomer, unassigned) [Example 243] | – | – | 1220 nM | 543 nM | – | –
39 | CC(C)C1=CN(CCCC(=O)O)C(=O)N[C@@]1(C)c1ccc(CCC2CCC2)c(Cl)c1 [Example 110] | 11 nM | 10 nM | – | – | – | –
40 | CC(C)(C)CCc1ccc([C@]2(C)NC(=O)N(c3ccc(C(=O)O)cn3)C=C2C2CC(F)(F)C2)cc1Cl [Example 320] | – | – | 23 nM | 27 nM | – | –
41 | CC(C)(C)CCc1ccc(C2NC(=O)N(CCCC(=O)O)C=C2C(C)(C)C)cc1Cl (single isomer, unassigned) [Example 11] | > 8000 nM | > 8000 nM | – | – | (87%) | (79%)
42 | CC(C)C1=CN(C(C)(C)CC(=O)O)C(=O)N[C@@]1(C)c1ccc(CCC(C)(C)C)c(Cl)c1 [Example 259] | – | – | 57 nM | 43 nM | – | –
43 | CC(C)(C)CCc1ccc(C2(C)NC(=O)N(CCCC(=O)O)C=C2C2CN(S(C)(=O)=O)C2)cc1Cl (racemic) [Example 81] | 2580 nM | 2490 nM | – | – | – | –
44 | CC(C)C1=CN(CCCC(=O)O)C(=O)NC1(C)c1ccc(OCCC(F)(F)F)cc1 (racemic) [Example 105] | 2790 nM | 1690 nM | – | – | – | –
